Patent US10770169B2, “Method of providing a treatment to a subject based on a dynamic pathway map” (THE REGENTS OF THE UNIVERSITY OF CALIFORNIA, priority 2010, dated 2020)

System: panel of 55 breast cancer cell lines
Assay: Cell growth inhibition assay (Cell Titer Glo, 72 h, 9 doses; GI50, TGI, LC50)
Type: cell-based, human
Conditions: value is the negative log10 of mol/L

## Oc1cc(-c2nc(-c3ccccc3)[nH]c2-c2ccncc2)ccc1Cl [L-779450]
BT474 cell line, censored GI50 values
  GI50: 4.73
BT483 cell line, censored GI50 values
  GI50: 4.84
HCC38 cell line, censored GI50 values
  GI50: 4.77
HCC1187 cell line, censored GI50 values
  GI50: 5.07
HCC1395 cell line, censored GI50 values
  GI50: 4.54
HCC1419 cell line, censored GI50 values
  GI50: 4.78
HCC1428 cell line, censored GI50 values
  GI50: 4.80
HCC1937 cell line, censored GI50 values
  GI50: 4.84
MDAMB134VI cell line, censored GI50 values
  GI50: 4.60
MDAMB175VII cell line, censored GI50 values
  GI50: 5.05
MDAMB361 cell line, censored GI50 values
  GI50: 5.04
MDAMB436 cell line, censored GI50 values
  GI50: 5.66
MDAMB468 cell line, censored GI50 values
  GI50: 4.90
SKBR3 cell line, censored GI50 values
  GI50: 4.66
SUM52PE cell line, censored GI50 values
  GI50: 5.13
SUM149PT cell line, censored GI50 values
  GI50: 5.13
SUM159PT cell line, censored GI50 values
  GI50: 4.70
UACC812 cell line, censored GI50 values
  GI50: 4.97
ZR75B cell line, censored GI50 values
  GI50: 4.51
Cell line AU565
  GI50: 4.48
Cell line BT20
  GI50: 4.44
Cell line BT474
  GI50: 4.73
Cell line BT483
  GI50: 4.84
Cell line CAMA1
  GI50: 4.44
Cell line HCC38
  GI50: 4.77
Cell line HCC70
  GI50: 4.50
Cell line HCC1143
  GI50: 4.39
Cell line HCC1187
  GI50: 5.07
Cell line HCC1395
  GI50: 4.54
Cell line HCC1419
  GI50: 4.78
Cell line HCC1428
  GI50: 4.80
Cell line HCC1500
  GI50: 4.48
Cell line HCC1937
  GI50: 4.84
Cell line HCC1954
  GI50: 4.48
Cell line HCC2185
  GI50: 4.42
Cell line HCC3153
  GI50: 4.48
Cell line MCF7
  GI50: 4.48
Cell line MDAMB134V
  GI50: 4.60
Cell line MDAMB175V
  GI50: 5.05
Cell line MDAMB231
  GI50: 4.49
Cell line MDAMB361
  GI50: 5.04
Cell line MDAMB436
  GI50: 5.66
Cell line MDAMB453
  GI50: 4.48
Cell line MDAMB468
  GI50: 4.90
Cell line SKBR3
  GI50: 4.66
Cell line SUM52PE
  GI50: 5.13
Cell line SUM149PT
  GI50: 5.13
Cell line SUM159PT
  GI50: 4.70
Cell line SUM1315MO
  GI50: 4.62
Cell line T47D
  GI50: 4.48
Cell line UACC812
  GI50: 4.97
Cell line ZR75B
  GI50: 4.51
Cell line ZR751
  GI50: 4.53
